Test results: patent US11535607B2, “Isoindolines as HDAC inhibitors” (Valo Health, Inc., priority 2018, dated 2022)

Columns and labels:
[1] = In vitro intrinsic clearance after incubation with mouse liver microsomes; type: in vitro ADME; details: for microsomal CLint: Table 5; for microsomal stability, in words: comparison
full-length human HDAC11 [2] = target: T1, full-length human HDAC11 (Homo sapiens (Human), UniProt Q96DB2); experiment: HDAC11 deacetylase electrophoretic mobility shift assay (Nanosyn); type: biochemical; details: for HDAC11 potency, in words: comparison with parent or lead compound; for IC50: mobility shift assay, Table 5, read-out: HDAC11 IC50
T1 sequence (Q96DB2 whole entry): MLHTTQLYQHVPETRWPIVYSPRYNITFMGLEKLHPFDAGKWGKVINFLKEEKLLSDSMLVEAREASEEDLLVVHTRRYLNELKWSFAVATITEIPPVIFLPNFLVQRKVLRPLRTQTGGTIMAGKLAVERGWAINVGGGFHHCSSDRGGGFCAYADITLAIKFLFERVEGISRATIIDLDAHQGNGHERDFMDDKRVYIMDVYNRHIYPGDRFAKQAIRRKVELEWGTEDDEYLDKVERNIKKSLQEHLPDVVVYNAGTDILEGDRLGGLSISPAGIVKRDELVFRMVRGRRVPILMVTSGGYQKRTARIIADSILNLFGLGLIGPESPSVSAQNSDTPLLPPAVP
Procedure: The measurement of HD AC 11 deacetylase activity was performed using an electrophoretic mobility shift assay by Nanosyn (Santa Clara, Calif.). Full length human recombinant HD AC 11 protein was expressed in baculoviral system and purified by affinity chromatography. The enzymatic reactions were assembled in 384 well plates in a total volume of 25 μL in a reaction buffer composing: 100 mM HEPES, pH 7.5, 25 mM KCl, 0.1% bovine serum albumin, 0.01% Triton X-100, 1% DMSO (from compounds), 2 μM of the fluorescently labeled peptide substrate and enzyme. The enzyme was added at a final concentration of 10 nM. The peptide substrate FAM-RHKK(tri-fluor-Ac)—NH2 was used. The compounds were tested at 12 concentrations spaced by 3× dilution intervals. Negative control samples (0%-inhibition in the absence of inhibitor) and positive control samples (100%-inhibition) were assembled in replicates of four in each assay plate. The reactions were incubated at 25° C. and quenched by the addition of 45 μL of termination buffer (100 mM HEPES, pH 7.5, 0.01% Triton X-100, 0.05% SDS).
The terminated assay plates were analyzed on LabChip® 3000 microfluidic electrophoresis instrument (Perkin Elmer/Caliper Life Sciences). The fluorescence intensity of the electrophoretically separated de-acetylated product and substrate peptide was measured. Activity in each sample was determined as the product to sum ratio (PSR): P/(S+P), where P is the peak height of the product peptide and S is the peak height of the substrate peptide. Percent inhibition (Pinh) is determined using the following equation: Pinh=(PSR0%−PSRinh)/(PSR0%−PSR100%)*100, where PSRinh, is the product sum ratio in the presence of inhibitor, PSR0% is the average product sum ration in the absence of inhibitor and PSR100% is the average product sum ratio in 100%-inhibition control samples. The IC50 values of inhibitors were determined by fitting the percent inhibition curves with 4 parameter dose-response model using XLfit 4 software.

HDAC11 = HDAC11 (Homo sapiens (Human), UniProt Q96DB2); experiment: Lipophilic efficiency (pIC50 HDAC11 - clogD7.4); details: pIC50 HDAC11 - clogD7.4, Table 5
Sequence of HDAC11 (Q96DB2 whole entry): as above

full-length human HDAC11 [3] = target: T1, full-length human HDAC11; experiment: Probe binding HDAC11 time resolved fluorescence (TRF) assay; details: Table 2, read-out: HDAC11 IC50 Range
Procedure: The probe binding HDAC11 assay was performed using a time resolved fluorescence (TRF) assay format. Recombinant N-terminal GST tag full-length human HD AC 11 was expressed and purified from baculovirus in Sf9 insect cells (SignalChem, #H93-30G-1000). […] 4 μL of 2× probe and 2× anti-GST Terbium (Cisbio, #61GSTXLB) was added to assay plates followed by 4 μL of 2×HDAC11.
Data from HD AC 11 Assays were reported as percent inhibition (inh) compared with control wells based on the following equation: % inh=1−((FLU−AveLow)/(AveHigh−AveLow)) where FLU=measured time resolved fluorescence. AveLow=average time resolved fluorescence of no enzyme control (n=32). AveHigh=average time resolved fluorescence of DMSO control (n=32). IC50 values were determined by curve fitting of the standard 4 parameter logistic fitting algorithm included in the Activity Base software package: IDBS XE Designer Model205. Data is fitted using the Levenburg Marquardt algorithm.

Row | Compound | microsomal CLint [1] [µL/min/mg] | microsomal stability, in words [1] | HDAC11 potency, in words (full-length human HDAC11 [2]) | IC50 (full-length human HDAC11 [2]) [nM] | LipE (HDAC11) | IC50 (full-length human HDAC11 [3]) [nM]
1 | Cc1nc(N2Cc3cccc(C(=O)NO)c3C2)[nH]c1C.Cl [Compound 1-2, 2-(4,5-dimethyl-1H-imidazol-2-yl)-N-hydroxyisoindoline-4-carboxamide hydrochloride] | 51 to 100 | loss of potency and microsomal stability | loss of potency | > 1000 | ++ (indicates 5.5<LipE≤6.5) | > 1000
2 | Cl.O=C(NO)c1cccc2c1CN(c1nc3c([nH]1)CCCC3)C2 [Compound 1-4, N-hydroxy-2-(4,5,6,7-tetrahydro-1H-benzo[d]imidazol-2-yl)isoindoline-4-carboxamide hydrochloride] | > 100 | loss of potency and microsomal stability | loss of potency | > 1000 | ++ (indicates 5.5<LipE≤6.5) | > 1000
3 | Cl.O=C(NO)c1cccc2c1CN(c1ccc3ccccc3n1)C2 [Compound 7-2, N-hydroxy-2-(quinolin-2-yl)isoindoline-4-carboxamide hydrochloride] | 51 to 100 | significant loss of microsomal stability | improved potency | < 500 | + (indicates LipE≤5.5) | < 500
4 | O=C(NO)c1cccc2c1CN(c1nc3ccccc3s1)C2 [Compound 7-4, 2-(benzo[d]thiazol-2-yl)-N-hydroxyisoindoline-4-carboxamide] | > 100 | significant loss of microsomal stability | improved potency | < 500 | + (indicates LipE≤5.5) | < 500
5 | O=C(NO)c1cccc2c1CN(c1nc3ccc(C(F)(F)F)cc3[nH]1)C2 [Compound 12-1, N-hydroxy-2-(6-(trifluoromethyl)-1H-benzo[d]imidazol-2-yl)isoindoline-4-carboxamide] | > 100 | loss of microsomal stability | significant increase in both potency and LipE | < 500 | ++ (indicates 5.5<LipE≤6.5) | < 500
6 | CC1(C)c2cccc(C(=O)NO)c2N[C@@H]1c1cnc(C(F)(F)F)cn1 [Compound 40-4, (S)-N-hydroxy-3,3-dimethyl-2-(5-(trifluoromethyl)pyrazin-2-yl)indoline-7-carboxamide] | – | – | – | – | – | > 1000
7 | CC1(C)c2cccc(C(=O)NO)c2N[C@H]1c1ccc(C(F)(F)F)cc1 [Compound 40-5, (S)-N-hydroxy-3,3-dimethyl-2-(4-(trifluoromethyl)phenyl)indoline-7-carboxamide] | – | – | – | – | – | 500 to 1000
8 | CC1(C)c2cccc(C(=O)NO)c2N[C@@H]1c1ccc(C(F)(F)F)cc1 [Compound 40-6, (R)-N-hydroxy-3,3-dimethyl-2-(4-(trifluoromethyl)phenyl)indoline-7-carboxamide] | – | – | – | – | – | > 1000
9 | O=C(NO)c1cccc2c1CN(C(=O)c1ccccc1)C2 [Compound 41-1, 2-benzoyl-N-hydroxyisoindoline-4-carboxamide] | – | – | – | – | – | > 1000
10 | COc1ccc(CN2Cc3cccc(C(=O)NO)c3C2)cc1 [Compound 41-2, N-hydroxy-2-(4-methoxybenzyl)isoindoline-4-carboxamide] | – | – | – | – | – | > 1000
11 | O=C(NO)c1cccc2c1CN(c1ccccc1)C2 [Compound 42-1, N-hydroxy-2-phenylisoindoline-4-carboxamide] | – | – | – | – | – | > 1000
12 | O=C(NO)c1cccc2c1CN(C1=NC(O)(C(F)(F)F)C(c3ccccc3)=N1)C2 (centres unmarked) [Compound 44-1, N-hydroxy-2-(4-hydroxy-5-phenyl-4-(trifluoromethyl)-4H-imidazol-2-yl)isoindoline-4-carboxamide] | – | – | – | – | – | > 1000
13 | O=C(NO)c1cccc2c1CN(c1cccc(C(F)(F)F)n1)C2 [Compound 45-2, N-hydroxy-2-(6-(trifluoromethyl)pyridin-2-yl)isoindoline-4-carboxamide] | – | – | – | – | – | > 1000
